Experimental data from patent US20250205249A1, “COMPOSITION FOR USE IN ENHANCING, BOOSTING, RESTORING AND/OR PREVENTING THE DECLINE OF COGNITIVE FUNCTIONS, ADJUVANT COMPOSITION, METHOD FOR USING THE COMPOSITION OR ADJUVANT COMPOSITION, AND KIT HAVING THE COMPOSITION OR ADJUVANT COMPOSITION” (Instytut Badawczy Innowacyjno Rozwojowy "Biotomed" Sp. Z O.O, priority 2023, published 2025).
Read-outs that look alike come from different tables or passages of the source. Marks after values point to notes of the source that are not given here.

Columns and labels:
renal tubular epithelium = details: cited from earlier work
[1] = tested on: differentiated SH-SY5Y neuroblastoma cells; assay: Neuroprotection against H2O2, coincubation variant; format: cell-based, human; details: for Improvement in cell viability relative to the positive control: coincubation with H2O2; for Increase in viability relative to cells treated with hydrogen peroxide: 24 h co-incubation, H2O2 at EC50
Description: (§1) Human neuroblastoma cells of the SH-SY5Y lineage were chosen to perform the experiment.
(§2) Based on the literature review and research work, hydrogen peroxide H2O2 was chosen as the neurotoxin.

[2] = tested on: differentiated neuroblastoma cells (SH-SY5Y); assay: Neuroprotection against H2O2, postincubation variant; format: cell-based, human; details: 1 h and 3 h H2O2 at EC50, then 24 h post-incubation
Description: as §1
Two time variants of incubation with hydrogen peroxide in differentiated neuroblastoma culture, i.e. 1 h and 3 h, were used in post-incubation.

[3] = tested on: rats with Alzheimer-like neurodegeneration; details: Morris water maze, 5th day of testing; AlCl3 rats
Description: (§3) The study was conducted on Wistar rats weighing 220-250 g. All animals were subjected to two weeks of observation prior to the experiment to exclude infection. Rats were housed in standard cages, 5 individuals in each. The animals stayed in a room with a temperature of 22±2° C., air humidity 60-70% and in natural lighting (12/12 in a day/night cycle).
(§4) The Alzheimer's disease model was induced by administering aluminum chloride AICl3 (200 mg/kg body weight, i.g.) to the animals for 120 days. […] Animals were assigned to groups: control group receiving saline (sham operation), group with AlCl3 without treatment and group with AlCl3 receiving betulin (100 mg/kg/day, i.g., within the last 50% of the days of the experiment) and betulin in the complex with cyclodextrin (100 mg/kg/day, i.g., in the last 50% of the days of the experiment). Betulin or betulin in a complex with cyclodextrin was administered orally with an intragastric probe in a 2% starch emulsion, reflecting the composition of the finished preparation given in the examples of use.

TNFα = details: 100 mg/kg/day, i.g.
Description: as §3
(§5) The Alzheimer's disease model was induced by administering aluminum chloride AICl3 (200 mg/kg body weight, i.g.) to the animals for 120 days. […] Animals were assigned to groups: control group receiving saline (sham operation), group with AlCl3 without treatment and group with AlCl3 receiving betulin (100 mg/kg/day, i.g., within the last 50% of the days of the experiment) and betulin in the complex with cyclodextrin (100 mg/kg/day, i.g., in the last 50% of the days of the experiment).
(§6) On the last day of the experiment, the animals were anaesthetized. Brains were quickly collected and then divided into different areas. The entire procedure was carried out in a cold room (+4° C.) on ice, and the samples were frozen in liquid nitrogen and stored in an ultra-low temperature refrigerator for further analysis.
(§7) In order to measure rat brain damage caused by aluminum chloride, biochemical determinations were carried out on the collected brain tissue fragments.

[4] = tested on: rats with Alzheimer-like neurodegeneration; assay: Beam walking test (motor coordination); format: in vivo, Wistar rats; details: 5th day of testing, AlCl3 rats
Description: as §3, §4

APLP2 = details: 100 mg/kg/day, i.g.
Description: as §3, §5, §6, §7

[5] = tested on: differentiated SH-SY5Y neuroblastoma cells; details: XTT assay, tested 1-30 μM
Description: as §1

[6] = tested on: differentiated SH-SY5Y neuroblastoma cells; assay: Early apoptosis of H2O2-treated cells, coincubation variant; format: cell-based, human; details: 24 h coincubation with H2O2
Description: A coincubation variant was used, i.e. simultaneous administration of betulin or a reference drug and H2O2. H2O2 concentrations were EC50 or EC80 (resulting in a 50% and 80% reduction in cell viability in viability assays). Betulin concentrations were 1 μM and 5 μM, while NAC concentrations were 0.1 mM and 1 mM. The coincubation time of the test substances with H2O2 was 24 h.

[7] = tested on: oxidative stress parameters (GSH, GSSG, G6PD, glutathione reductase, glutathione-S-transferase, GPO); assay: Glutathione content and antioxidant enzymes activities in brain hemispheres during Al-intoxication; format: in vivo, Wistar rats
Description: Influence of Betulin on Oxidative Stress Parameters in Rats with Alzheimer-Like Neurodegeneration

[8] = tested on: differentiated SH-SY5Y cells; assay: Neuroprotection against H2O2, preincubation variant; format: cell-based, human
Description: as §1, §2

Aβ1-42 protein = details: 100 mg/kg/day, i.g.
Description: as §3, §5, §6, §7

[9] = cited from earlier work; for Total daily oral dose may reach: as dietary supplement (HP-β-cyclodextrin: as oral pharmaceutical); for NOAEL (No Observed Adverse Effect Level): oral intake
[10] = rat hippocampal homogenate, AlCl3 model
[11] = brain hemispheres, Al-intoxication

Question: With RM-β-cyclodextrin as the compound, how does the “Renal toxicity after parenteral administration (in words)” value (renal tubular epithelium; parenteral administration) read?
Answer: renal toxicity at relatively low doses

Question: For `C=C(C)[C@@H]1CC[C@]2(CO)CC[C@]3(C)[C@H](CC[C@@H]4[C@@]5(C)CC[C@H](O)C(C)(C)[C@@H]5CC[C@]43C)[C@@H]12` [betulin], which “Improvement in cell viability relative to the positive control” value ([1]; betulin 1 μM) is on record?
Answer: 27%

Question: And the “Improvement in cell viability relative to the positive control” value ([1]; betulin 5 μM)?
Answer: 18%

Question: And the “Protective effect after H2O2 treatment (in words)” value [2]?
Answer: no increase in viability relative to the positive control

Question: What about the “Time spent in a target quadrant” value [3] of the same compound?
Answer: 26 ± 8^ab seconds

Question: And the “Time to reach the platform” value [3]?
Answer: 38 ± 7^b seconds

Question: And the “Effect on TNFα concentration in hippocampal homogenates (in words)” value (TNFα)?
Answer: reduced the concentration of TNFα

Question: And the TNF-α (TNFα; [10])?
Answer: 5.88 ± 0.39 ^b pg/mg

Question: What about the “Percent of successful trials” value [4] of the same compound?
Answer: 100^b %

Question: And the “Time to reach the shelter” value [4]?
Answer: 18.6 ± 3.6^ab seconds

Question: What about the “Effect on APLP2 concentration in hippocampal homogenates (in words)” value (APLP2) of the same compound?
Answer: reduced the concentration of APLP2

Question: What about the APLP2 (APLP2; rat brain hippocampus homogenate, AlCl3 model) of the same compound?
Answer: 588.1 ± 36.4^ab pg/100 mg

Question: And the “Concentration above which a cytotoxic effect is induced (viability below the 70% threshold)” value [5]?
Answer: > 20 µM

Question: And the “Percentage of apoptotic cells” value ([6]; betulin 1 μM)?
Answer: 2.7%

Question: And the “Percentage of apoptotic cells” value ([6]; betulin 5 μM)?
Answer: 2.5%

Question: And the “Effect on GSH, GR and GSTs activity (in words)” value ([7]; animals with induced AD)?
Answer: significant increase in the activity of all enzymes

Question: And the “Effect on GSSG, G6PD and GPO activity (in words)” value ([7]; animals with induced AD)?
Answer: significant decrease in the activity of these enzymes

Question: And the G6PD [7, 11]?
Answer: 28.61 ± 1.62^b nmol NADPH/min/mg protein

Question: And the GPO [7, 11]?
Answer: 33.63 ± 2.09^b umol GSH/min/mg protein

Question: And the GSH [7, 11]?
Answer: 26.09 ± 2.19^b nmol/mg protein

Question: What about the GSSG [7, 11] of the same compound?
Answer: 0.112 ± 0.002^b nmol/mg protein

Question: What about the Glutathione reductase [7, 11] of the same compound?
Answer: 11.59 ± 1.39 nmol NADPH/min/mg protein

Question: What about the Glutathione-S-transferase [7, 11] of the same compound?
Answer: 129.90 ± 10.45^b nmol CDNB/min/mg protein

Question: What about the “Protective effect against H2O2 (in words)” value ([8]; betulin 1, 2, 5 and 10 μM, toxin at EC50) of the same compound?
Answer: statistically significant protective effect

Question: And the “Protective effect against H2O2 (in words)” value ([8]; betulin 15 and 20 μM)?
Answer: no protective effect

Question: And the “Effect on β-amyloid concentration in hippocampal homogenates (in words)” value (Aβ1-42 protein)?
Answer: reduced the concentration of β-amyloid

Question: And the “Protein Aβ1-42” value (Aβ1-42 protein; [10])?
Answer: 83.25 ± 6.40^ab pg/100 mg

Question: What does the source list for `OC[C@H]1O[C@@H]2O[C@H]3[C@H](O)[C@@H](O)[C@@H](O[C@H]4[C@H](O)[C@@H](O)[C@@H](O[C@H]5[C@H](O)[C@@H](O)[C@@H](O[C@H]6[C@H](O)[C@@H](O)[C@@H](O[C@H]7[C@H](O)[C@@H](O)[C@@H](O[C@H]1[C@H](O)[C@H]2O)O[C@@H]7CO)O[C@@H]6CO)O[C@@H]5CO)O[C@@H]4CO)O[C@@H]3CO` [α-cyclodextrin]?
Answer: Total daily oral dose may reach [9]: 6000 mg/day; Renal toxicity after parenteral administration (in words) (renal tubular epithelium; rat, in vivo): renal toxicity at relatively low doses

Question: Which results are given for `OC[C@H]1O[C@@H]2O[C@H]3[C@H](O)[C@@H](O)[C@@H](O[C@H]4[C@H](O)[C@@H](O)[C@@H](O[C@H]5[C@H](O)[C@@H](O)[C@@H](O[C@H]6[C@H](O)[C@@H](O)[C@@H](O[C@H]7[C@H](O)[C@@H](O)[C@@H](O[C@H]8[C@H](O)[C@@H](O)[C@@H](O[C@H]9[C@H](O)[C@@H](O)[C@@H](O[C@H]1[C@H](O)[C@H]2O)O[C@@H]9CO)O[C@@H]8CO)O[C@@H]7CO)O[C@@H]6CO)O[C@@H]5CO)O[C@@H]4CO)O[C@@H]3CO` [γ-cyclodextrin]?
Answer: Total daily oral dose may reach [9]: 10,000 mg/day; NOAEL (No Observed Adverse Effect Level) [9]: 100 mg/kg/day; Dose showing only reversible vacuolation in the renal tubular epithelium (renal tubular epithelium; rats, high doses): > 600 mg/kg

Question: Which “Increase in viability relative to cells treated with hydrogen peroxide” value ([1]; NAC 0.01 mM) does the source give for `CC(=O)N[C@@H](CS)C(=O)O` [NAC, N-acetyl-L-cysteine, reference compound] here?
Answer: 12%

Question: And the “Increase in viability relative to cells treated with hydrogen peroxide” value ([1]; NAC 0.1 mM)?
Answer: 40%

Question: What about the “Increase in viability relative to cells treated with hydrogen peroxide” value ([1]; NAC 1 mM) of the same compound?
Answer: 54%

Question: And the “Protective effect after H2O2 treatment (in words)” value [2]?
Answer: induced a protective effect in a NAC concentration-dependent manner

Question: And the “Induction of early apoptosis (percentage of apoptotic cells)” value ([6]; NAC 0.1 mM)?
Answer: 12.2%

Question: And the “Induction of early apoptosis (percentage of apoptotic cells)” value ([6]; NAC 1 mM)?
Answer: 12.0%

Question: And the “Protective effect against H2O2 (in words)” value ([8]; 24 h preincubation, NAC 2.5 mM to 0.01 mM, H2O2 at EC50)?
Answer: statistically significant (####p<0.001) protective effect on cells (no decrease in viability)

Question: For `OC[C@H]1O[C@@H]2O[C@H]3[C@H](O)[C@@H](O)[C@@H](O[C@H]4[C@H](O)[C@@H](O)[C@@H](O[C@H]5[C@H](O)[C@@H](O)[C@@H](O[C@H]6[C@H](O)[C@@H](O)[C@@H](O[C@H]7[C@H](O)[C@@H](O)[C@@H](O[C@H]8[C@H](O)[C@@H](O)[C@@H](O[C@H]1[C@H](O)[C@H]2O)O[C@@H]8CO)O[C@@H]7CO)O[C@@H]6CO)O[C@@H]5CO)O[C@@H]4CO)O[C@@H]3CO` [β-cyclodextrin], which “Total daily oral dose may reach” value [9] is on record?
Answer: 500 mg/day

Question: What about the “NOAEL (No Observed Adverse Effect Level)” value [9] of the same compound?
Answer: 10 mg/kg/day

Question: With HP-β-cyclodextrin as the compound, how does the “Total daily oral dose may reach” value [9] read?
Answer: 8000 mg/day
